Measurements published in patent US20170362621A1, “ENGINEERED MULTIFUNCTIONAL ENZYMES AND METHODS OF USE” (Danisco US Inc., priority 2014, published 2017).
Substitutions are numbered along the chain they refer to.

Columns and labels:
Type in all cases: biochemical
[1] = molecular target: T1, Trichoderma reesei Bgl1 variant Bgl1-var-02, V43F (numbered per mature Bgl1, SEQ ID NO:3) (Trichoderma reesei, UniProt Q12715, V74F); assay: steady state kinetics, hydrolysis of pNpX
T1 construct: diluted fermentation product
T1 sequence (Q12715 32-744 V74F): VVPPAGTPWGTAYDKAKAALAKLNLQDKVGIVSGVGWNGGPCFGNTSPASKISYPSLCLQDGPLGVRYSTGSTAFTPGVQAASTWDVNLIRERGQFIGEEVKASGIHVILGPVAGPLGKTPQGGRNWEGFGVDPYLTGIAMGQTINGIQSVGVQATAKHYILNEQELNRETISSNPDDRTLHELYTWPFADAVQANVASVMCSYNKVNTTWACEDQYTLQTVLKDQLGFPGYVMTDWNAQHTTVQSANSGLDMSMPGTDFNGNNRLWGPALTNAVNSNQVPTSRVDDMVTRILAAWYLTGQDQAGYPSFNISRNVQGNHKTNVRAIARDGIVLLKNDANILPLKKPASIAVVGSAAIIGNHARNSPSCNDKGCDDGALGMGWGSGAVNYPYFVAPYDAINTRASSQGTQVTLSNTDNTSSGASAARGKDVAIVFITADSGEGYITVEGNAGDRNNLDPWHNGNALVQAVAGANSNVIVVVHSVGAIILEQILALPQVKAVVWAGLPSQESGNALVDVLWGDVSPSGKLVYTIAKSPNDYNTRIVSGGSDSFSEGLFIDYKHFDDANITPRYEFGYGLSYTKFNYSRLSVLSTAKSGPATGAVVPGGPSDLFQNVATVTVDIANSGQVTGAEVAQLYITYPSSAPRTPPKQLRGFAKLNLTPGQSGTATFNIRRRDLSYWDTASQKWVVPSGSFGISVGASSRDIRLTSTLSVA
From the text: (§1) The Bgl1 variants of the table above were produced as follows. The nucleotide sequences encoding these variants were synthesized by an external vendor (BaseClear, Leiden, the Netherlands), and cloned into the pTTTpyr2 vector (see, e.g., published PCT application WO2014029808). Protoplasts of a Trichoderma reesei strain (e.g., the hexa-delete strain of International Publication WO05/001036) with its cbh1, cbh2, eg1, eg2, eg3, and bgl1 deleted) were transformed with plasmid DNA encoding the variants and wild type. The resulting transformants were fermented using standard Trichoderma reesei fermentation procedures.
(§2) Variants 02, 03 and 12 were diluted and incubated with varying concentrations of para-nitrophenol-beta-D-xylopyranoside (or para-nitrophenol-beta-D-xyloside) (pNpX) and para-nitrophenol-beta-D-glucopyranoside (pNpG) in the concentration range of 0.1-9 mM at 37° C. for 30 minutes. Reactions were stopped by addition of 100 μL 0.5 M sodium carbonate and absorbance was measured at 410 nm. Background subtracted OD410 absorbances were plotted against substrate concentration (FIG. 6B-E) and the data was fitted with a function for Michaelis-Menten kinetics using the statistical software package R. Michaelis constants and relative maximum velocities for hydrolysis of pNpX and pNpG were reported in Tables 6 and 7, below, respectively.
(§3) It was noted that the data for pNpX hydrolysis by the wild type Bgl1 could not be fitted with the Michaelis-Menten function. In order to calculate a Michalis constant the maximum velocity obtained for Variant 03 was used.

[2] = molecular target: T2, Trichoderma reesei Bgl1 variant Bgl1-var-03, V43L (numbered per mature Bgl1, SEQ ID NO:3) (Trichoderma reesei, UniProt Q12715, V74L); assay: steady state kinetics, hydrolysis of pNpX
T2 construct: diluted fermentation product
T2 sequence (Q12715 32-744 V74L): T1 sequence (Q12715 32-744 V74F) with F43L
From the text: as §1, §2, §3

[3] = molecular target: T3, Trichoderma reesei Bgl1 variant Bgl1-var-12, V43F/W237A (numbered per mature Bgl1, SEQ ID NO:3) (Trichoderma reesei, UniProt Q12715, V74F/W268A); assay: steady state kinetics, hydrolysis of pNpX
T3 construct: diluted fermentation product
T3 sequence (Q12715 32-744 V74F/W268A): T1 sequence (Q12715 32-744 V74F) with W237A
From the text: as §1, §2, §3

[4] = molecular target: T4, Trichoderma reesei beta-glucosidase I (Bgl1), wild type, SEQ ID NO:2 (mature SEQ ID NO:3) (Trichoderma reesei, UniProt Q12715); assay: steady state kinetics, hydrolysis of pNpX; conditions: not fitted, maximum velocity obtained for Variant 03 was used
T4 construct: secreted mature protein
T4 sequence (Q12715 32-744): T1 sequence (Q12715 32-744 V74F) with F43V
From the text: as §1, §2, §3

[5] = molecular target: T1, Trichoderma reesei Bgl1 variant Bgl1-var-02, V43F (numbered per mature Bgl1, SEQ ID NO:3); assay: steady state kinetics, hydrolysis of pNpG
From the text: as §1, §2

[6] = molecular target: T2, Trichoderma reesei Bgl1 variant Bgl1-var-03, V43L (numbered per mature Bgl1, SEQ ID NO:3); assay: steady state kinetics, hydrolysis of pNpG
From the text: as §1, §2

[7] = molecular target: T3, Trichoderma reesei Bgl1 variant Bgl1-var-12, V43F/W237A (numbered per mature Bgl1, SEQ ID NO:3); assay: steady state kinetics, hydrolysis of pNpG
From the text: as §1, §2

[8] = molecular target: T4, Trichoderma reesei beta-glucosidase I (Bgl1), wild type, SEQ ID NO:2 (mature SEQ ID NO:3); assay: steady state kinetics, hydrolysis of pNpG; conditions: 0.1-9 mM, 37° C., 30 minutes
From the text: as §1, §2

[9] = pNpX, 0.1-9 mM, 37° C., 30 minutes
[10] = fold reduction versus wild type, Table 7
[11] = pNpG, 0.1-9 mM, 37° C., 30 minutes

SMILES: O=[N+]([O-])c1ccc(O[C@@H]2OC[C@@H](O)[C@H](O)[C@H]2O)cc1 [pNpX, para-nitrophenol-beta-D-xylopyranoside]
- Relative Vmax [1, 9]: 93 ± 4
- more efficient hydrolysis of pNpX as compared to the wild type Bgl1 ([1]; ratio to wild type, Table 6): 6-7 fold
- Relative Vmax [2, 9]: 100 ± 4
- more efficient hydrolysis of pNpX as compared to the wild type Bgl1 ([2]; ratio to wild type, Table 6): 6-7 fold
- Relative Vmax [3, 9]: 89 ± 4
- higher efficiency of pNpX hydrolysis than the wild type ([3]; ratio to wild type, Table 6): about 2 ×
- Relative Vmax [4]: 100 ± 4

SMILES: O=[N+]([O-])c1ccc(O[C@@H]2O[C@H](CO)[C@@H](O)[C@H](O)[C@H]2O)cc1 [pNpG, para-nitrophenol-beta-D-glucopyranoside]
- efficiency for hydrolysis of pNpG, reduced relative to Bgl1 wild type [5, 10]: 8 ×
- Relative Vmax [5, 11]: 46 ± 6
- Relative Vmax [6, 11]: 87 ± 2
- efficiency for hydrolysis of pNpG compared with Bgl1 wild type ([6]; versus wild type, Table 7): approximately equal
- efficiency for hydrolysis of pNpG, reduced relative to Bgl1 wild type [7, 10]: 26 ×
- Relative Vmax [7, 11]: 27 ± 10
- Relative Vmax [8]: 100.0 ± 0.1
